How the values were obtained:
[1] = in water; all tested temperatures; compared with NH4Cl; FIG. 1, literature and experimental data
Procedure: The solubility experiment was conducted by adding different amounts of salt to a set amount of water in glass vials. The amount of water used was such that the salt was mostly insoluble at room temperature. The vials were then heated up until all salts were dissolved. Temperature was recorded as each vial cooled. The temperature at which crystallization began was noted.

[2] = all temperatures; compared with NH4Cl; FIG. 2, literature values or calculated from solubility data
Procedure: The effectiveness of the salt to dissolve in the aqueous phase was determined by its critical relative humidity (CRH) at various temperatures. CRH was defined by the ratio of the partial pressure of water in the solution (Pw) to the partial pressure of pure water (P*w) shown below.
The CRH of the salt at a specified temperature was calculated from thermodynamic parameters found in the equation:
Where CRH was the critical relative humidity, T was the temperature, ΔHs was the heat of solution at infinite dilution, R is the gas constant, and A, B, and C are solubility parameters obtained from solubility as a function of temperature of the salt.
Data not available in the literature was experimentally performed in triplicate by an enthalpy experiment and a solubility experiment.
The enthalpy experiment was conducted by recording changes in temperature as different amounts of the salt dissolved in a set volume of water located in a calorimeter. The enthalpy of solution was calculated for each of the different amount of salt used. The enthalpy data was then fitted and extrapolated to determine enthalpy of solution at an infinite dilution.
The CRH values at room temperature were found in literature or calculated from the solubility data following the below equations.

C[N+](C)(C)CCO.[Cl-] [ChCl, choline chloride]
solubility as a function of temperature (mol salt/mol water) [1]: more soluble than NH4Cl | critical relative humidity (CRH) [2]: lower
